Assays:
Assay in all cases: AUC of viability dose-response curve (% viability x log10 dose units); higher = less sensitive
Settings in all cases: 48 h
SEM cells = test system: SEM cells
Summary of the method: (§1)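 Medium-adapted leukemia cells in 1536-well plates, at 500 or 1000 cells/well, were incubated for 48 h at 37°C with library compounds in DMSO at 11 threefold doses from 47 μM to 0.79 nM. CellTiter-Glo One luminescence normalised per plate to DMSO and cell-free wells was fitted with a four-parameter log-logistic model over log10 doses. Area under the curve was integrated from this fit by trapezoidal rule, with curves beyond full viability scaled and failed quality-control curves removed.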

P12-Ichikawa = test system: P12-Ichikawa
Summary of the method: as §1

NOMO1 = test system: NOMO1
Summary of the method: as §1

[1] = RPMI 5 mM glucose + 10% dialyzed FBS

SMILES | AUC of viability dose-response curve (SEM cells; HPLM + 10% dialyzed FBS) | AUC of viability dose-response curve (SEM cells; RPMI 5 mM glucose + 10% FBS) | AUC of viability dose-response curve (SEM cells; [1]) | AUC of viability dose-response curve (P12-Ichikawa; HPLM + 10% dialyzed FBS) | AUC of viability dose-response curve (P12-Ichikawa; RPMI 5 mM glucose + 10% FBS) | AUC of viability dose-response curve (P12-Ichikawa; [1]) | AUC of viability dose-response curve (NOMO1; HPLM + 10% dialyzed FBS) | AUC of viability dose-response curve (NOMO1; RPMI 5 mM glucose + 10% FBS) | AUC of viability dose-response curve (NOMO1; [1])
CNCCN(C)Cc1c[nH]nc1-c1ccc(O[C@H]2C[C@H](OCCC3CCOCC3)C2)cc1 | 436 | 397 | 431 | 457 | 472 | 468 | 457 | 461 | 465
CCC[S+](=O)([O-])Nc1ccc(F)c(C(=O)c2c[nH]c3ncc(-c4ccc(Cl)cc4)cc23)c1F | 470 | 474 | 464 | 455 | 452 | 446 | 445 | 477 | 461
O=C1C(CCC(O)c2ccc(F)cc2)C(c2ccc(O)cc2)N1c1ccc(F)cc1 (centres undefined) | 477 | 470 | 466 | 472 | 472 | 465 | 461 | 435 | 469
COC1=CC(=C2C(=O)N(COC/3=C/C(=O)N4\C=C/C=C(OCCN5CCCCC5)\C4=N3)[S+]([O-])(=O)C2=C1)C(C)C | 476 | 452 | 436 | 477 | 460 | 470 | 460 | 463 | 471
CNC(=O)c1cc(Oc2ccc(NC(=O)Nc3ccc(Cl)c(C(F)(F)F)c3)c(F)c2)ccn1 | 296 | 314 | 275 | 422 | 422 | 427 | 444 | 438 | 440
COc1cc([C@@H]2c3cc4c(cc3[C@H](O)[C@H]3COC(=O)[C@H]23)OCO4)cc(OC)c1OC | – | – | – | 69.5 | 70.5 | 75.2 | 170 | 126 | 138
Cc1ccc([S+](=O)([O-])NC(=O)NN2CC3CCCC3C2)cc1 (centres undefined) | 369 | 334 | 337 | 388 | 378 | 371 | 433 | 436 | 439
Cc1cccc(Nc2nc(N[C@@H]3CCCC[C@@H]3N)ncc2C(N)=O)c1 | – | – | – | 334 | 380 | 368 | 424 | 411 | 409
CN1CCC(=C2c3ccccc3CCc3sccc32)CC1 | 453 | 459 | 464 | 472 | 471 | 465 | 460 | 477 | 466
OCCN1CCN(CCCN2c3ccccc3Sc3ccc(C(F)(F)F)cc32)CC1 | – | – | – | 403 | 402 | 418 | 411 | 420 | 454
O=C(Nc1ccncc1)C(=O)c1cn(Cc2ccc(Cl)cc2)c2ccccc12 | 249 | 237 | 247 | 281 | 275 | 288 | 306 | 315 | 311
Cc1ccc(C)c(OCCCC(C)(C)C(=O)O)c1 | 442 | 456 | 453 | 458 | 429 | 413 | 457 | 449 | 447
